How the values were obtained:
[1] = molecular target: T1, Baculoviral IAP repeat-containing protein 2 (Homo sapiens, UniProt Q13490); assay: Antagonist activity at cIAP1 in human MDA-MB-231 cells assessed as cIAP1 degradation after 1 hr by ELISA; assay type: functional, cell-based
[2] = molecular target: T2, E3 ubiquitin-protein ligase XIAP (Homo sapiens, UniProt P98170); assay: Antagonist activity at GST-tagged BIR3 domain of XIAP using AbuRPFK-5FAM after 20 mins by fluorescence polarization assay; assay type: functional
[3] = molecular target: T1, Baculoviral IAP repeat-containing protein 2; assay: Antagonist activity at GST-tagged BIR3 domain of cIAP1 using AbuRPFK-5FAM after 20 mins by fluorescence polarization assay; assay type: functional
MDA-MB-231 [4] = assay: Antiproliferative activity against human MDA-MB-231 cells after 48 hrs by alamar blue assay; assay type: functional; conditions: MDA-MB-231, 48 h
[5] = Lipophilicity, log D of the compound; assay type: physicochemical; conditions: octanol/water
MDA-MB-231 [6] = assay: Antiproliferative activity against human MDA-MB-231 cells assessed as cell growth at 11.3 uM after 48 hrs by alamar blue assay relative to control; assay type: functional; conditions: MDA-MB-231, 48 h, read-out: Activity
MDA-MB-231 [7] = assay: Antiproliferative activity against human MDA-MB-231 cells assessed as cell growth at 0.0155 uM after 48 hrs by alamar blue assay relative to control; assay type: functional; conditions: MDA-MB-231, 48 h, read-out: Activity
MDA-MB-231 [8] = assay: Antiproliferative activity against human MDA-MB-231 cells assessed as cell growth at 0.0465 uM after 48 hrs by alamar blue assay relative to control; assay type: functional; conditions: MDA-MB-231, 48 h, read-out: Activity
MDA-MB-231 [9] = assay: Antiproliferative activity against human MDA-MB-231 cells assessed as cell growth at 0.41852 uM after 48 hrs by alamar blue assay relative to control; assay type: functional; conditions: MDA-MB-231, 48 h, read-out: Activity
MDA-MB-231 [10] = assay: Antiproliferative activity against human MDA-MB-231 cells assessed as cell growth at 0.00517 uM after 48 hrs by alamar blue assay relative to control; assay type: functional; conditions: MDA-MB-231, 48 h, read-out: Activity
[11] = molecular target: T2, E3 ubiquitin-protein ligase XIAP; assay: Binding affinity to GST-tagged BIR3 domain of XIAP by isothermal titration calorimetry
MDA-MB-231 [12] = assay: Antiproliferative activity against human MDA-MB-231 cells assessed as cell growth at 1.25556 uM after 48 hrs by alamar blue assay relative to control; assay type: functional; conditions: MDA-MB-231, 48 h, read-out: Activity
MDA-MB-231 [13] = assay: Antiproliferative activity against human MDA-MB-231 cells assessed as cell growth at 0.00172 uM after 48 hrs by alamar blue assay relative to control; assay type: functional; conditions: MDA-MB-231, 48 h, read-out: Activity
MDA-MB-231 [14] = assay: Antiproliferative activity against human MDA-MB-231 cells assessed as cell growth at 0.13951 uM after 48 hrs by alamar blue assay relative to control; assay type: functional; conditions: MDA-MB-231, 48 h, read-out: Activity
MDA-MB-231 [15] = assay: Antiproliferative activity against human MDA-MB-231 cells assessed as cell growth at 3.76667 uM after 48 hrs by alamar blue assay relative to control; assay type: functional; conditions: MDA-MB-231, 48 h, read-out: Activity

Compound | EC50 [1] | IC50 [3] | also measured
CN[C@@H](C)C(=O)N[C@H](C(=O)N1CC[C@H]2CCN(CCc3ccccc3)C[C@H]21)C1CCCCC1 | – | – | logD [5]: 2.61
CN[C@@H](C)C(=O)N[C@H](C(=O)N[C@H]1CCN(Cc2ccccc2)C1)C1CCCCC1 | – | 3380 nM | –
CN[C@@H](C)C(=O)N[C@H](C(=O)N[C@H]1CCN(CCc2ccccc2)C1)C1CCCCC1 | – | 500 nM | –
CN[C@@H](C)C(=O)N[C@H](C(=O)N[C@H]1CCN(CCCc2ccccc2)C1)C1CCCCC1 | – | 740 nM | –
CN[C@@H](C)C(=O)N[C@H](C(=O)N[C@H]1CCN(C(=O)c2ccccc2)C1)C1CCCCC1 | – | 5020 nM | –
CN[C@@H](C)C(=O)N[C@H](C(=O)N[C@H]1CCN(C(=O)Cc2ccccc2)C1)C1CCCCC1 | – | 780 nM | –
CN[C@@H](C)C(=O)N[C@H](C(=O)N[C@H]1CCN(C(=O)OCc2ccccc2)C1)C1CCCCC1 | – | 740 nM | –
CN[C@@H](C)C(=O)N[C@H](C(=O)N[C@H]1CCCN(Cc2ccccc2)C1)C1CCCCC1 | – | 1690 nM | –
CN[C@@H](C)C(=O)N[C@H](C(=O)N[C@H]1CCCN(CCCc2ccccc2)C1)C1CCCCC1 | – | 790 nM | –
CN[C@@H](C)C(=O)N[C@H](C(=O)N[C@H]1CCCN(C(=O)c2ccccc2)C1)C1CCCCC1 | – | 3360 nM | –
CN[C@@H](C)C(=O)N[C@H](C(=O)N[C@H]1CCCN(C(=O)Cc2ccccc2)C1)C1CCCCC1 | – | 130 nM | –
CN[C@@H](C)C(=O)N[C@H](C(=O)N[C@H]1CCCN(C(=O)OCc2ccccc2)C1)C1CCCCC1 | – | 450 nM | –
CN[C@@H](C)C(=O)N[C@H](C(=O)N[C@H]1CCCCN(Cc2ccccc2)C1)C1CCCCC1 | – | 270 nM | –
CN[C@@H](C)C(=O)N[C@H](C(=O)N[C@H]1CCCCN(CCc2ccccc2)C1)C1CCCCC1 | – | 80 nM | –
CN[C@@H](C)C(=O)N[C@H](C(=O)N[C@H]1CCCN(CC(c2ccccc2)c2ccccc2)C1)C1CCCCC1 | – | 62 nM | –
CN[C@@H](C)C(=O)N[C@H](C(=O)N[C@H]1CCCN([C@@H]2CCCc3ccccc32)C1)C1CCCCC1 | – | 1990 nM | –
CN[C@@H](C)C(=O)N[C@H](C(=O)N[C@H]1CCCN(S(=O)(=O)c2ccccc2)C1)C(C)(C)C | – | 5750 nM | –
CN[C@@H](C)C(=O)N[C@H](C(=O)N[C@H]1CCCN(S(=O)(=O)Cc2ccccc2)C1)C(C)(C)C | – | 3890 nM | –
CN[C@@H](C)C(=O)N[C@H](C(=O)N[C@H]1CCCN(CCc2cccc(F)c2)C1)C1CCCCC1 | 279 nM | 68 nM | –
CN[C@@H](C)C(=O)N[C@H](C(=O)N[C@H]1CCCN(CCc2cccc(OC)c2)C1)C(C)(C)C | 164 nM | 52 nM | –
CN[C@@H](C)C(=O)N[C@H](C(=O)N[C@H]1CCCN(CCc2ccc(OC)cc2)C1)C(C)(C)C | 158 nM | 90 nM | –
CN[C@@H](C)C(=O)N[C@H](C(=O)N[C@H]1CCCN(CCc2ccccn2)C1)C(C)(C)C | > 370 nM | 301 nM | –
CN[C@@H](C)C(=O)N[C@H](C(=O)N[C@H]1CCCN(CCc2ccncc2)C1)C(C)(C)C | > 370 nM | 593 nM | –
CN[C@@H](C)C(=O)N[C@H](C(=O)N[C@H]1CCCN(CCc2c[nH]c3ccccc23)C1)C(C)(C)C | 185 nM | 115 nM | –

The remaining compounds from weak to strong by IC50 [3], led by results:

EC50 [1] | IC50 [3] | Compound | also measured
156 nM | 50 nM | CN[C@@H](C)C(=O)N[C@H](C(=O)N[C@H]1CCCN(CCc2ccccc2OC)C1)C(C)(C)C | –
300 nM | 49 nM | CN[C@@H](C)C(=O)N[C@H](C(=O)N[C@H]1CCCN(CCc2ccc(C(F)(F)F)cc2)C1)C(C)(C)C | –
– | 44 nM | CN[C@@H](C)C(=O)N[C@H](C(=O)N(C)[C@H]1CCCN(CCc2ccccc2)C1)C1CCCCC1 | –
68 nM | 42 nM | CN[C@@H](C)C(=O)N[C@H](C(=O)N[C@H]1CCCN(CCc2ccc(O)cc2)C1)C(C)(C)C | –
113 nM | 40 nM | CN[C@@H](C)C(=O)N[C@H](C(=O)N[C@H]1CCCN(CCc2ccccc2)C1)C1CCCCC1 | IC50 [2]: > 8000 nM; GI50 (MDA-MB-231 [4]): 1010 nM
104 nM | 33 nM | CN[C@@H](C)C(=O)N[C@H](C(=O)N[C@H]1CCCN(CCc2ccccc2F)C1)C1CCCCC1 | –
60 nM | 32 nM | CN[C@@H](C)C(=O)N[C@H](C(=O)N[C@H]1CCCN(CCc2ccc([N+](=O)[O-])cc2)C1)C(C)(C)C | –
60 nM | 30 nM | CN[C@@H](C)C(=O)N[C@H](C(=O)N[C@H]1CCCN(CCc2ccc(C)cc2)C1)C(C)(C)C | –
– | 26 nM | CN[C@@H](C)C(=O)N[C@H](C(=O)N[C@H]1CCCN(CCc2ccccc2)C1)C(C)(C)C | –
117 nM | 24 nM | CN[C@@H](C)C(=O)N[C@H](C(=O)N[C@H]1CCCN(CCc2ccc(Cl)cc2)C1)C(C)(C)C | –
71 nM | 24 nM | CN[C@@H](C)C(=O)N[C@H](C(=O)N[C@H]1CCCN(CCc2ccc(Br)cc2)C1)C(C)(C)C | –
60 nM | 20 nM | CN[C@@H](C)C(=O)N[C@H](C(=O)N[C@H]1CCCN(CCc2ccc(F)cc2)C1)C(C)(C)C | –
58 nM | 18 nM | CN[C@@H](C)C(=O)N[C@H](C(=O)N[C@H]1CCCN(CCc2ccc(F)cc2)C1)C1CCCCC1 | –
5 nM | 4 nM | CN[C@@H](C)C(=O)N[C@H](C(=O)N[C@H]1C[C@@H]2CC[C@H]1N(CCc1ccccc1)C2)C1CCCCC1 | growth at 11.3 µM (MDA-MB-231 [6]): 8.61%; logD [5]: 1.64; IC50 [2]: 365 nM; growth at 0.0155 µM (MDA-MB-231 [7]): 84%; growth at 0.0465 µM (MDA-MB-231 [8]): 73.5%; growth at 0.41852 µM (MDA-MB-231 [9]): 3.61%; growth at 0.00517 µM (MDA-MB-231 [10]): 82.2%; Kd [11]: 900 nM; growth at 1.25556 µM (MDA-MB-231 [12]): -12.2%; growth at 0.00172 µM (MDA-MB-231 [13]): 97%; growth at 0.13951 µM (MDA-MB-231 [14]): 37.5%; growth at 3.76667 µM (MDA-MB-231 [15]): -11%; GI50 (MDA-MB-231 [4]): 100 nM

From ChEMBL document CHEMBL1949628, “Discovery of aminopiperidine-based Smac mimetics as IAP antagonists” (Bioorg Med Chem Lett, 2012)
